# Assay results as given in patent US20260315434A1, “USE OF GUAIACOL SESQUITERPENE LACTONE DERIVATIVES” (NANJING UNIVERSITY OF CHINESE MEDICINE, priority 2023, published 2026).
# System: T cells / MDSCs
# Assay: Promotion of T cell proliferation in a co-culture model of MDSCs and T cells
# Type: cell-based, mouse
# Details: Mus musculus, T-cell, 12 h, read-out: T-cell proliferation rate (%), 1 μM, MDSCs treated 12 hours, co-culture of MDSCs and T cells, compared to the control group
# Experimental: Under sterile conditions, the tibia was removed, both ends of the bone were cut, and bone marrow was repeatedly flushed into a 15 mL centrifuge tube using a 1 mL syringe filled with culture medium. Centrifuge at 1600 rpm for 5 min to collect bone marrow cells. […] The spleen cell suspension was then transferred into a 15 mL centrifuge tube. Centrifuge at 1600 rpm for 5 min to collect T cells. Wash twice with 1×PBS. Resuspend the centrifuged T cells in 1 mL PBS and add 1 mL of 10 μM CFDA-SE solution. Incubate at room temperature for 8 min. […] After drug administration, collect MDSC cells into centrifuge tubes. Centrifuge at 1600 rpm for 5 min, remove supernatant, resuspend in 1 mL fresh medium, and plate. Add 1 mL stimulated activated T cells (1:1 ratio) for 48 h co-culture. After incubation, collect cells into centrifuge tubes, wash twice with PBS, and incubate with Fc antibody at room temperature in the dark for 10 min. Add CD3-labeled flow cytometry antibody and incubate at 4° C. in the dark for 30 min. After incubation, wash cells with PBS, resuspend in 300 μL PBS, and analyze by flow cytometry.
row,Compound,activation at 1 µM
1,C=C1C(=O)O[C@H]2[C@H]1CCC(C)=C1CC[C@@](C)(OC(=O)NC)[C@@H]12 [Compound 64],> 40%
2,C=C1C(=O)O[C@H]2[C@H]1CCC(C)=C1CC[C@@](C)(OC(=O)NCC)[C@@H]12 [Compound 65],0 to 20%
3,C=C1C(=O)O[C@H]2[C@H]1CCC(C)=C1CC[C@@](C)(OC(=O)NCCC)[C@@H]12 [Compound 66],0 to 20%
4,C=C1C(=O)O[C@H]2[C@H]1CCC(C)=C1CC[C@@](C)(OC(=O)NCCCC)[C@@H]12 [Compound 67],20 to 40%
5,C=C1C(=O)O[C@H]2[C@H]1CCC(C)=C1CC[C@@](C)(OC(=O)NC(C)C)[C@@H]12 [Compound 68],0 to 20%
6,C=C1C(=O)O[C@H]2[C@H]1CCC(C)=C1CC[C@@](C)(OC(=O)NC(CC)CC)[C@@H]12 [Compound 69],20 to 40%
7,C=C1C(=O)O[C@H]2[C@H]1CCC(C)=C1CC[C@@](C)(OC(=O)NC3CC3)[C@@H]12 [Compound 70],0 to 20%
8,C=C1C(=O)O[C@H]2[C@H]1CCC(C)=C1CC[C@@](C)(OC(=O)NCCO)[C@@H]12 [Compound 71],> 40%
9,C=C1C(=O)O[C@H]2[C@H]1CCC(C)=C1CC[C@@](C)(OC(=O)NCCCO)[C@@H]12 [Compound 72],20 to 40%
10,C=C1C(=O)O[C@H]2[C@H]1CCC(C)=C1CC[C@@](C)(OC(=O)NCCCCCO)[C@@H]12 [Compound 73],20 to 40%
11,C=C1C(=O)O[C@H]2[C@H]1CCC(C)=C1CC[C@@](C)(OC(=O)NCCOC)[C@@H]12 [Compound 74],> 40%
12,C=C1C(=O)O[C@H]2[C@H]1CCC(C)=C1CC[C@@](C)(OC(=O)NCCCOC)[C@@H]12 [Compound 75],20 to 40%
13,C=C1C(=O)O[C@H]2[C@H]1CCC(C)=C1CC[C@@](C)(OC(=O)NCCOCCO)[C@@H]12 [Compound 76],20 to 40%
14,C=C1C(=O)O[C@H]2[C@H]1CCC(C)=C1CC[C@@](C)(OC(=O)NCCN(C)C)[C@@H]12 [Compound 77],0 to 20%
15,C=C1C(=O)O[C@H]2[C@H]1CCC(C)=C1CC[C@@](C)(OC(=O)NCc3ccccc3)[C@@H]12 [Compound 79],20 to 40%
